Patent US9822157B2 (priority 2013, dated 2017)
pEC50: −log10 of the molar value. Read-outs that look alike come from different tables or passages of the source.

Target: T1, human ferroportin (Homo sapiens, UniProt Q9NP59)
T1 sequence (Q9NP59 1-571): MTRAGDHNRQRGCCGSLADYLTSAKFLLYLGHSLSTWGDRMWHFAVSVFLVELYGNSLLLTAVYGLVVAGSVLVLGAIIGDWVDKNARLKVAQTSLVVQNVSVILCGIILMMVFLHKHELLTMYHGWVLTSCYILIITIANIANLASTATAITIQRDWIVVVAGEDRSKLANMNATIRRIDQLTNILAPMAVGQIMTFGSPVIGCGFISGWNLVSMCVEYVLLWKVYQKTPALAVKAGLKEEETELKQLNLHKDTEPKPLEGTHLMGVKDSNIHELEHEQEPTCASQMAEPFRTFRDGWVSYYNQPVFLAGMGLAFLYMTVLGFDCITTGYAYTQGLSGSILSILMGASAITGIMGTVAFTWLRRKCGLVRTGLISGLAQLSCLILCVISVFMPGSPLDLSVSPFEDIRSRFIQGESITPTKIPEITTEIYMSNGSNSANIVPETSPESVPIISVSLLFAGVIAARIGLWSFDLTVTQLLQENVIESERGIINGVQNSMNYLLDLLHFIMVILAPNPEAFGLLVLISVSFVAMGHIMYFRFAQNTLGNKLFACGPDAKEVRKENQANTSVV
Format: cell-based
Conditions: for % Activity At 1 uM: at 1 uM peptide, monomers and disulphide-linked dimers
Description: The cDNA encoding the human ferroportin (SLC40A1) was cloned from a cDNA clone from Origene (NM_014585). The DNA encoding the ferroportin was amplified by PCR using primers also encoding terminal restriction sites for subcloning, but without the termination codon. The ferroportin receptor was subcloned into a mammalian GFP expression vector containing a neomycin (G418) resistance marker in such that the reading frame of the ferroportin was fused in frame with the GFP protein. The fidelity of the DNA encoding the protein was confirmed by DNA sequencing. HEK293 cells were used for transfection of the ferroportin-GFP receptor expression plasmid. The cells were grown according to standard protocol in growth medium and transfected with the plasmids using Lipofectamine (manufacturer's protocol, Invitrogen). […] The cells were propagated and frozen in aliquots.
A retro inverse peptide is a peptide with a reversed sequence in all D amino acids. […] The EC50 of these reference compounds for ferroportin degradation was determined according to the activity assay described above.

[1] = Hepcidin analog peptides, read-out: Potency EC50
[2] = read-out: EC50 (n > 3), alanine scan of Compound 1
[3] = read-out: EC50 (nM) (n > 3), alanine scan of Compound 18
[4] = read-out: EC50 (nM) (n > 3), alanine scan of Compound 1
[5] = cysteine replacement scan of Mini-Hepcidin derivatives
[6] = read-out: EC50 (n = 3), cells printed in μM, in vitro activity as in Example 2, peptide monomers and dimers dimerized through a single disulphide linkage, n = 3
[7] = read-out: EC50 (nM) (n = 3), in vitro activity as in Example 2, peptide monomers and dimers dimerized through a single disulphide linkage, n = 3

(Isovaleric acid-DTHFPCIKF-NH2)2 [Compound 326]
% Activity At 1 uM: 100%

H-ATHFPCIIF-NH2 [Compound 284]
pEC50 [1]: < 6.00 | pEC50 [2]: < 6.00

H-ATHFPICIFGPRSKGWVCM-NH2 (cysteine pairing not given here) [Compound 33]
pEC50 [1]: 6.74 | EC50 [3]: 184 nM

H-DAHFPCIIF-NH2 [Compound 52]
pEC50 [1]: 6.41 | EC50 [4]: 388 nM

H-DTAFPCIIF-NH2 [Compound 283]
pEC50 [1]: 6.13 | EC50 [4]: 739 nM

H-DTAFPICIFGPRSKGWVCM-NH2 (cysteine pairing not given here) [Compound 60]
pEC50 [1]: 6.30 | EC50 [3]: 498 nM

H-DTHAPCIIF-NH2 [Compound 282]
Potency EC50 (nM) (Hepcidin analog peptides): Inactive | EC50 (nM) (n > 3) (alanine scan of Compound 1): Not active

H-DTHAPICIFGPRSKGWVCM-NH2 (cysteine pairing not given here) [Compound 38]
pEC50 [1]: 6.60 | EC50 [3]: 254 nM

H-DTHCPIAIF-NH2 [Compound 277]
Potency EC50 (nM) (Hepcidin analog peptides): Inactive | EC50 (nM) (n > 3) [5]: Not active

H-DTHFACIIF-NH2 [Compound 280]
pEC50 [1]: < 6.00 | pEC50 [2]: < 6.00

H-DTHFAICIFGPRSKGWVCM-NH2 (cysteine pairing not given here) [Compound 26]
pEC50 [1]: 6.83 | EC50 [3]: 147 nM

H-DTHFGCIIFGPRSKGWVCK-NH2 (cysteine pairing not given here) [Compound 123]
Potency EC50 (nM) (Hepcidin analog peptides): Inactive

H-DTHFKCIIFGPRSKGWVCK-NH2 (cysteine pairing not given here) [Compound 131]
Potency EC50 (nM) (Hepcidin analog peptides): Inactive

H-DTHFPCAIF-NH2 [Compound 279]
pEC50 [1]: < 6.00 | pEC50 [2]: < 6.00

H-DTHFPCIAF-NH2 [Compound 51]
pEC50 [1]: 6.42 | EC50 [4]: 382 nM

H-DTHFPCIEF-NH2 [Compound 287]
pEC50 [1]: < 6.00

H-DTHFPCIEK-NH2 [Compound 310]
% Activity At 1 uM: 0% | EC50 [6]: > 1000 nM

H-DTHFPCIF-NH2 [Compound 293]
% Activity At 1 uM: 52%

H-DTHFPCIFF-NH2 [Compound 56]
pEC50 [1]: 6.36

H-DTHFPCIIA-NH2 [Compound 278]
pEC50 [1]: < 6.00 | pEC50 [2]: < 6.00

H-DTHFPCIIFGPRARGWVCK-NH2 (cysteine pairing not given here) [Compound 87]
pEC50 [1]: < 6.00

H-DTHFPCIIFGPRSKGWVCK-NH2 (cysteine pairing not given here) [Compound 86]
pEC50 [1]: < 6.00

H-DTHFPCIIFGPRSKGWVCM-NH2 (cysteine pairing not given here) [Compound 21]
pEC50 [1]: 7.34

H-DTHFPCIIFGPRSRGVCK-NH2 (cysteine pairing not given here) [Compound 84]
pEC50 [1]: < 6.00

H-DTHFPCIIFGPRSRGWRCK-NH2 (cysteine pairing not given here) [Compound 80]
pEC50 [1]: < 6.00

H-DTHFPCIIFK-NH2 [Compound 55]
pEC50 [1]: 6.38

H-DTHFPCIIK-NH2 [Compound 304]
% Activity At 1 uM: 55% | EC50 [6]: > 1000 nM

H-DTHFPCIIR-NH2 [Compound 305]
% Activity At 1 uM: 62% | EC50 [6]: > 1000 nM

H-DTHFPCIKFF-NH2 [Compound 297]
% Activity At 1 uM: 64% | EC50 [7]: > 300 nM

H-DTHFPCIKFGPRSKGWVCM-NH2 (cysteine pairing not given here) [Compound 136]
pEC50 [1]: 6.17

H-DTHFPCILF-NH2 [Compound 308]
% Activity At 1 uM: 89% | EC50 [7]: > 300 nM

H-DTHFPCILK-NH2 [Compound 309]
% Activity At 1 uM: 55% | EC50 [7]: > 300 nM

H-DTHFPCIRFGPRSRGWRCK-NH2 (cysteine pairing not given here) [Compound 82]
pEC50 [1]: < 6.00

H-DTHFPCIRFGPRSRGWVCK-NH2 (cysteine pairing not given here) [Compound 81]
pEC50 [1]: < 6.00

H-DTHFPCISFGPRSKGWVCK-NH2 (cysteine pairing not given here) [Compound 101]
pEC50 [1]: < 6.00

H-DTHFPCISFGPRSKGWVCM-NH2 (cysteine pairing not given here) [Compound 135]
pEC50 [1]: 6.26

H-DTHFPCIVF-NH2 [Compound 307]
% Activity At 1 uM: 75% | EC50 [7]: > 300 nM

H-DTHFPCIYFGPRSKGWVCK-NH2 (cysteine pairing not given here) [Compound 85]
pEC50 [1]: 6.15

H-DTHFPCRRFGPRSKGWVC-NH2 (cysteine pairing not given here) [Compound 70]
Potency EC50 (nM) (Hepcidin analog peptides): Inactive

H-DTHFPIAICI-NH2 [Compound 274]
Potency EC50 (nM) (Hepcidin analog peptides): Inactive | EC50 (nM) (n > 3) [5]: Not active

H-DTHFPIAIFAAGICI-NH2 [Compound 269]
Potency EC50 (nM) (Hepcidin analog peptides): Inactive | EC50 (nM) (n > 3) [5]: Not active

H-DTHFPIAIFAAICI-NH2 [Compound 270]
Potency EC50 (nM) (Hepcidin analog peptides): Inactive | EC50 (nM) (n > 3) [5]: Not active

H-DTHFPIAIFAICI-NH2 [Compound 271]
Potency EC50 (nM) (Hepcidin analog peptides): Inactive | EC50 (nM) (n > 3) [5]: Not active

H-DTHFPIAIFGPRSKGWVAM-NH2 [Compound 69]
Potency EC50 (nM) (Hepcidin analog peptides): Inactive | EC50 (nM) (n > 3) (alanine scan of Compound 18): Inactive

H-DTHFPIAIFICI-NH2 [Compound 272]
Potency EC50 (nM) (Hepcidin analog peptides): Inactive | EC50 (nM) (n > 3) [5]: Not active

H-DTHFPIAIICI-NH2 [Compound 273]
Potency EC50 (nM) (Hepcidin analog peptides): Inactive | EC50 (nM) (n > 3) [5]: Not active

H-DTHFPICAFGPRSKGWVCM-NH2 (cysteine pairing not given here) [Compound 68]
pEC50 [1]: < 5.00 | pEC50 (read-out: EC50 (n > 3), alanine scan of Compound 18): < 5.00

H-DTHFPICIAGPRSKGWVCM-NH2 (cysteine pairing not given here) [Compound 67]
pEC50 [1]: 5.61 | EC50 [3]: 2470 nM

H-DTHFPICIFAPRSKGWVCM-NH2 (cysteine pairing not given here) [Compound 22]
pEC50 [1]: 5.03 | EC50 [3]: 9430 nM

H-DTHFPICIFGPASKGWVCM-NH2 (cysteine pairing not given here) [Compound 34]
pEC50 [1]: 6.69 | EC50 [3]: 206 nM

H-DTHFPICIFGPHRSKGWVCM-NH2 (cysteine pairing not given here) [Compound 27]
pEC50 [1]: 6.83

H-DTHFPICIFGPRAKGWVCM-NH2 (cysteine pairing not given here) [Compound 16]
pEC50 [1]: 7.06 | EC50 [3]: 88 nM

H-DTHFPICIFGPRAKGWVCM-NH2 (cysteine pairing not given here) [Compound 28]
pEC50 [1]: 7.06

H-DTHFPICIFGPRSKAWVCM-NH2 (cysteine pairing not given here) [Compound 31]
pEC50 [1]: 6.76 | EC50 [3]: 175 nM

H-DTHFPICIFGPRSKGAVCM-NH2 (cysteine pairing not given here) [Compound 66]
pEC50 [1]: 6.28 | EC50 [3]: 520 nM

H-DTHFPIICI-NH2 [Compound 275]
Potency EC50 (nM) (Hepcidin analog peptides): Inactive | EC50 (nM) (n > 3) [5]: Not active

H-DTHFRCIIFGPRSKGWVCK-NH2 (cysteine pairing not given here) [Compound 125]
Potency EC50 (nM) (Hepcidin analog peptides): Inactive

H-DTHICIAIF-NH2 [Compound 276]
Potency EC50 (nM) (Hepcidin analog peptides): Inactive | EC50 (nM) (n > 3) [5]: Not active

H-DTKFPCIIF-NH2 [Compound 302]
% Activity At 1 uM: 60% | EC50 [6]: > 1000 nM

H-EDTHFPCIIFGPRSKGWVCK-NH2 (cysteine pairing not given here) [Compound 103]
pEC50 [1]: < 6.00

H-EDTHFPCIIFGPRSKGWVCM-NH2 (cysteine pairing not given here) [Compound 137]
pEC50 [1]: 6.06

H-HFPCIIFGPRSKGWVCK-NH2 (cysteine pairing not given here) [Compound 99]
Potency EC50 (nM) (Hepcidin analog peptides): Inactive

H-HFPCIIFGPRSKGWVCM-NH2 (cysteine pairing not given here) [Compound 133]
pEC50 [1]: < 6.00

H-THFPCIIFGPRSKGWVCK-NH2 (cysteine pairing not given here) [Compound 97]
Potency EC50 (nM) (Hepcidin analog peptides): Inactive

H-THFPCIIFGPRSKGWVCM-NH2 (cysteine pairing not given here) [Compound 132]
pEC50 [1]: < 6.00

H-VDTHFPCIKFGPRSKGWVCK-NH2 (cysteine pairing not given here) [Compound 164]
pEC50 [1]: 6.84
